This note sets out measurements from ChEMBL document CHEMBL1123575, “In search of the digitalis replacement” (J Med Chem, 1987).

Values joined by “and” are separate entries in the source; they are usually repeats but may differ in a detail not shown here. Identical values can stand only once.

Assay [1] addresses T1, Phosphodiesterase; PDE3 & PDE4 (Homo sapiens) (UniProt P27815+Q14432+Q08499+Q07343+Q13370+Q08493). The experiment in a line: Inhibition of cAMP Phosphodiesterase enzyme. Type of assay: protein assay.
Assay [2] has as its target Beta-1 adrenergic receptor (Homo sapiens) (UniProt P08588).
Description: Positive inotropic effects by direct or indirect beta-1 adrenergic receptor activation.
A short description of assay [3]: Compound was evaluated for its inotropic activity by its ability to increase Myofibrillar Ca++ sensitivity. It is filed as functional.
Assay [4] has as its target T1, Phosphodiesterase; PDE3 & PDE4 (Homo sapiens). Nature of the assay: Compound was evaluated for its inotropic activity by the inhibition of cAMP Phosphodiesterase enzyme. It is filed as protein assay.
For assay [5], the target named is Beta-1 adrenergic receptor (Homo sapiens) (UniProt P08588). The experiment in a line: Compound was tested for its inotropic effect by activation of beta-1 adrenergic receptor directly or indirectly; activity values are 73,75.
Beta-1 adrenergic receptor (Homo sapiens), sequence (P08588 whole entry, looked up): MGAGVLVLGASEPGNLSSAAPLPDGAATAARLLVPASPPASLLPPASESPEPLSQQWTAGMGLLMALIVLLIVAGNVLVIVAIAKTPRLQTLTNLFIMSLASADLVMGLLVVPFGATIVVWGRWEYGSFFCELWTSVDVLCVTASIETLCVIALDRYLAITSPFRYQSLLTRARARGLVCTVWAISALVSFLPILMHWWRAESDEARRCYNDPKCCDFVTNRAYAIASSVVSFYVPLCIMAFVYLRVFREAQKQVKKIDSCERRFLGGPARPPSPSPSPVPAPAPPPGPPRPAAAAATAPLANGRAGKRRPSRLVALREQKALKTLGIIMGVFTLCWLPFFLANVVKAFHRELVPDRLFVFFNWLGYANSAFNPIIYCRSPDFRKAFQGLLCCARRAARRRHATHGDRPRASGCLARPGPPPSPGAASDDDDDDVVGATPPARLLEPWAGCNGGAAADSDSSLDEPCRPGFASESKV
Assay [6] has the same target. Nature of the assay: Compound was tested for its inotropic effect by activation of beta-1 adrenergic receptor directly or indirectly; activity values are 70,71.

`CCc1nc(O)ncc1-c1ccc(O)cc1` gave a PDE inhibition in assay [1] of 67. For the same molecule, the Inotropic effect in assay [2] is 67.
Take `Cc1nc(O)c(N)cc1-c1ccccc1`: the Mechanistic reference in assay [3] is 62. In assay [1], this molecule gave a PDE inhibition of 62.
For the molecule `COc1ccc(-c2nc3cc(C4=NNC(=O)CC4C)ccc3[nH]2)cc1` (stereo not given), the Inotropic effect in assay [2] stood at 82. Besides, in assay [4], the PDE inhibition is 81 and 80.
In turn, `C[C@H](CCc1ccc(O)cc1)NC[C@H](O)c1ccc(O)cc1` came in with an Inotropic effect in assay [2] of 39.
Consider `CC(C)NC[C@H](O)COc1ccc(O)cc1`, for which the Inotropic effect in assay [2] was 35 and 34.
Turning to `Cc1[nH]c(=O)c(C#N)cc1-c1ccncc1`, the PDE inhibition in assay [1] stood at 58.
Regarding `CC1CC(O)=NN=C1c1ccc(-n2ccnc2)cc1` (stereo not given), the PDE inhibition in assay [1] is 76.
With `CCCCNC(=O)NC1CCN(c2ncnc3cc(OC)c(OC)cc23)CC1`, the PDE inhibition in assay [1] is 84. In assay [2], this molecule yielded an Inotropic effect of 85.
In turn, `CNCCc1ccc(OC(=O)C(C)C)c(OC(=O)C(C)C)c1` yielded an Inotropic effect in assay [2] of 38.
In turn, `O=C1CCC(c2ccc3c(c2)NC(=O)CC3)=NN1` registered a PDE inhibition in assay [1] of 83.
In assay [1], `C[C@@H]1C(=O)NC2=Nc3cccc(Cl)c3CN21` returned a PDE inhibition of 88. In assay [2], this molecule returned an Inotropic effect of 89.
On to `Nc1cc(-c2ccncc2)c[nH]c1=O`, for which the Inotropic effect in assay [2] stood at 57. Also, the PDE inhibition in assay [4] is 57 and 56 and 24.
`Oc1ccc(CCNCCCCCCNCCc2ccccc2)cc1O` displayed an Inotropic effect in assay [2] of 36.
Molecule `CC(=O)Nc1ccc(-c2cnc(O)cn2)cc1` returned a PDE inhibition in assay [1] of 63.
In turn, `CSc1ccc(C(=O)c2[nH]c(=O)[nH]c2C)cc1` yielded an Inotropic effect in assay [5] of 75. Also, the PDE inhibition in assay [1] amounted to 72.
Consider `CCc1[nH]c(=O)[nH]c1C(=O)c1ccncc1`, for which the PDE inhibition in assay [1] was 68. In addition, the Inotropic effect in assay [6] came out at 71.
With `CC(CCc1ccc(O)cc1)NCCc1ccc(O)c(O)c1` (stereo not given), the Inotropic effect in assay [2] is 26.
Molecule `CCNC(=O)OC1CCN(c2nncc3cc(OC)c(OC)cc23)CC1` returned a PDE inhibition in assay [1] of 86. Besides, the Inotropic effect in assay [2] came out at 86.
With `COc1ccc2[nH]c(=O)nc(C)c2c1OC`, in assay [1], the PDE inhibition was 91.
In turn, `Cc1nc(=O)c(C#N)c(NCc2cccnc2)[nH]1` showed an Inotropic effect in assay [2] of 66. Further, the PDE inhibition in assay [4] is 64 and 65.
In the case of `O=C1CCC(c2ccc(-n3ccnc3)cc2)=NN1`, the PDE inhibition in assay [1] worked out at 76. The molecule also registered an Inotropic effect in assay [2] of 78.
As for `CN(C(=O)CCCOc1ccc2c(c1)CN1CC(=O)NC1=N2)C1CCCCC1`, the PDE inhibition in assay [1] was determined as 90.
On to `COc1ccc(C(=O)N2CCN(c3ccc4c(c3)CCC(=O)N4)CC2)cc1OC`, for which the PDE inhibition in assay [1] is 87.
On to `OC(CNCCC1c2ccccc2Oc2ccccc21)COc1ccccc1` (stereo not given), for which the Inotropic effect in assay [2] is 45 and 44.
